# Data published in patent publication US7423159B2, “Agent for preventing or treating neuropathy” (Takeda Pharmaceutical Company Limited, priority 2002, dated 2008).
row,melting point,Structure (SMILES)
1,263 to 264 °C,"Cc1nc2ccccc2n1Cc1ccc(NC(=O)/C=C/c2cnn(C)c2-c2ccc(F)cc2)cc1 [Example 173, (2E)-3-[5-(4-Fluorophenyl)-1-methyl-1H-pyrazol-4-yl]-N-{4-[(2-methyl-1H-benzimidazol-1-yl)methyl]phenyl}acrylamide]"
2,209 to 210 °C,"Cn1ncc(/C=C/C(=O)Nc2ccc(Cc3nccs3)cc2)c1-c1ccc(F)cc1 [Example 128, (2E)-3-[5-(4-Fluorophenyl)-1-methyl-1H-pyrazol-4-yl]-N-{4-[(1,3-thiazol-2-yl)methyl]phenyl}acrylamide]"
3,188 to 189 °C,"Cn1ncc(/C=C/C(=O)Nc2ccc(CC(C)(C)O)cc2)c1-c1ccc(F)cc1 [Example 114, (2E)-3-[5-(4-Fluorophenyl)-1-methyl-1H-pyrazol-4-yl]-N-[4-(2-hydroxy-2-methylpropyl)phenyl]acrylamide]"
4,150 to 152 °C,"CCc1nc(Cc2ccc(NC(=O)/C=C/c3cnn(C)c3-c3ccc(F)cc3)cc2)no1 [Example 118, (2E)-N-{4-[(5-Ethyl-1,2,4-oxadiazol-3-yl)methyl]phenyl}-3-[5-(4-fluorophenyl)-1-methyl-1H-pyrazol-4-yl]acrylamide]"
5,215 to 216 °C,"Cn1ncc(/C=C/C(=O)Nc2ccc(Cc3ccccn3)cc2)c1-c1ccc(F)cc1 [Example 96, (2E)-3-[5-(4-Fluorophenyl)-1-methyl-1H-pyrazol-4-yl]-N-[4-(pyridin-2-ylmethyl)phenyl]acrylamide]"
6,192 to 193 °C,"Cc1nc(Cc2ccc(NC(=O)/C=C/c3cnn(C)c3-c3ccc(F)cc3)cc2)cs1 [Example 100, (2E)-3-[5-(4-Fluorophenyl)-1-methyl-1H-pyrazol-4-yl]-N-{4-[(2-methyl-1,3-thiazol-4-yl)methyl]phenyl}acrylamide]"
7,226 to 227 °C,"Cn1ncc(/C=C/C(=O)Nc2ccc(Cc3ccccc3)cc2)c1-c1ccc(F)cc1 [Example 175, (2E)-N-(4-Benzylphenyl)-3-[5-(4-fluorophenyl)-1-methyl-1H-pyrazol-4-yl]acrylamide]"
8,159 to 161 °C,"Cn1nnc(Cc2ccc(NC(=O)/C=C/c3cnn(C)c3-c3ccc(F)cc3)cc2)n1 [Example 102, (2E)-3-[5-(4-Fluorophenyl)-1-methyl-1H-pyrazol-4-yl]-N-{4-[(2-methyl-2H-tetrazol-5-yl)methyl]phenyl}acrylamide]"
9,164 to 165 °C,"CCc1nnc(Cc2ccc(NC(=O)/C=C/c3cnn(C)c3-c3ccc(F)cc3)cc2)o1 [Example 134, (2E)-N-{4-[(5-ethyl-1,3,4-oxadiazol-2-yl)methyl]phenyl}-3-[5-(4-fluorophenyl)-1-methyl-1H-pyrazol-4-yl]acrylamide]"
10,204 to 206 °C,"Cn1ncc(/C=C/C(=O)Nc2ccc(CS(=O)(=O)c3c[nH]nn3)cc2)c1-c1ccc(F)cc1 [Example 227, (2E)-3-[5-(4-Fluorophenyl)-1-methyl-1H-pyrazol-4-yl]-N-{4-[(1H-1,2,3-triazol-4-ylsulfonyl)methyl]phenyl}acrylamide]"
11,229 to 230 °C,"Cn1ncc(/C=C/C(=O)Nc2ccc(Cn3ccnc3CO)cc2)c1-c1ccc(F)cc1 [Example 200, (2E)-3-[5-(4-Fluorophenyl)-1-methyl-1H-pyrazol-4-yl]-N-(4-{[2-(hydroxymethyl)-1H-imidazol-1-yl]methyl}phenyl)acrylamide]"
12,150 to 151 °C,"Cn1ncc(/C=C/C(=O)Nc2ccc(CC(C)(C)C)cc2)c1-c1ccc(F)cc1 [Example 105, (2E)-3-[5-(4-Fluorophenyl)-1-methyl-1H-pyrazol-4-yl]-N-(4-neopentylphenyl)acrylamide]"
13,271 to 272 °C,"CCC(=O)NCc1ccc(NC(=O)/C=C/c2cnn(C)c2-c2ccc(F)cc2)cc1 [Example 138, (2E)-3-[5-(4-fluorophenyl)-1-methyl-1H-pyrazol-4-yl]-N-{4-[(propionylamino)methyl]phenyl}acrylamide]"
14,190 to 191 °C,"CCc1nc(CCc2ccc(NC(=O)/C=C/c3cnn(C)c3-c3ccc(F)cc3)cc2)cs1 [Example 90, (2E)-N-{4-[2-(2-Ethyl-1,3-thiazol-4-yl)ethyl]phenyl}-3-[5-(4-fluorophenyl)-1-methyl-1H-pyrazol-4-yl]acrylamide]"
15,223 to 224 °C,"Cn1ncc(/C=C/C(=O)Nc2ccc(CS(=O)(=O)c3ccccc3)cc2)c1-c1ccc(F)cc1 [Example 225, (2E)-3-[5-(4-Fluorophenyl)-1-methyl-1H-pyrazol-4-yl]-N-{4-[(phenylsulfonyl)methyl]phenyl}acrylamide]"
16,195 to 196 °C,"Cn1ncc(/C=C/C(=O)Nc2ccc(Cc3nc4ccccc4o3)cc2)c1-c1ccc(F)cc1 [Example 107, (2E)-N-[4-(1,3-Benzoxazol-2-ylmethyl)phenyl]-3-[5-(4-fluorophenyl)-1-methyl-1H-pyrazol-4-yl]acrylamide]"
17,177 to 178 °C,"Cn1ncc(/C=C/C(=O)Nc2ccc(CCc3nnco3)cc2)c1-c1ccc(F)cc1 [Example 89, (2E)-3-[5-(4-Fluorophenyl)-1-methyl-1H-pyrazol-4-yl]-N-{4-[2-(1,3,4-oxadiazol-2-yl)ethyl]phenyl}acrylamide]"
18,262 to 263 °C,"Cn1ncc(/C=C/C(=O)Nc2ccc(Cc3n[nH]c(=O)o3)cc2)c1-c1ccc(F)cc1 [Example 86, (2E)-3-[5-(4-Fluorophenyl)-1-methyl-1H-pyrazol-4-yl]-N-{4-[(5-oxo-4,5-dihydro-1,3,4-oxadiazol-2-yl)methyl]phenyl}acrylamide]"
19,224 to 226 °C,"CCc1cn(Cc2ccc(NC(=O)/C=C/c3cnn(C)c3-c3ccc(F)cc3)cc2)cn1 [Example 171, (2E)-N-{4-[(4-Ethyl-1H-imidazol-1-yl)methyl]phenyl}-3-[5-(4-fluorophenyl)-1-methyl-1H-pyrazol-4-yl]acrylamide]"
20,146 to 148 °C,"Cn1ncc(/C=C/C(=O)Nc2ccc(Cn3ncc4ccccc43)cc2)c1-c1ccc(F)cc1 [Example 176, (2E)-3-[5-(4-Fluorophenyl)-1-methyl-1H-pyrazol-4-yl]-N-[4-(1H-indazol-1-ylmethyl)phenyl]acrylamide]"
21,154 to 155 °C,"CCCc1nnc(Cc2ccc(NC(=O)/C=C/c3cnn(C)c3-c3ccc(F)cc3)cc2)o1 [Example 85, (2E)-3-[5-(4-fluorophenyl)-1-methyl-1H-pyrazol-4-yl]-N-{4-[(5-propyl-1,3,4-oxadiazol-2-yl)methyl]phenyl}acrylamide]"
22,166 to 168 °C,"Cn1ncc(/C=C/C(=O)Nc2ccc(CSC(C)(C)C)cc2)c1-c1ccc(F)cc1 [Example 211, (2E)-N-{4-[(tert-Butylthio)methyl]phenyl}-3-[5-(4-fluorophenyl)-1-methyl-1H-pyrazol-4-yl]acrylamide]"

# More lines, now with the values behind:
row,Structure (SMILES),melting point
1,"Cn1nnnc1SCc1ccc(NC(=O)/C=C/c2cnn(C)c2-c2ccc(F)cc2)cc1 [Example 214, (2E)-3-[5-(4-Fluorophenyl)-1-methyl-1H-pyrazol-4-yl]-N-(4-[[(1-methyl-1H-tetrazol-5-yl)thio]methyl]phenyl)acrylamide]",150 to 152 °C
2,COP(=O)(Cc1ccc(NC(=O)/C=C/c2cnn(C)c2-c2ccccc2F)cc1)OC,220 to 221 °C
3,CCOP(=O)(Cc1ccc(NC(=O)/C=C/c2cnn(C)c2-c2cccc(F)c2)cc1)OCC,205 to 206 °C
4,CCOP(=O)(Cc1ccc(NC(=O)/C=C/c2nn(C)cc2-c2ccc(F)cc2)cc1)OCC,203 to 204 °C
5,"Cn1nnnc1S(=O)(=O)Cc1ccc(NC(=O)/C=C/c2cnn(C)c2-c2ccc(F)cc2)cc1 [Example 226, (2E)-3-(5-(4-Fluorophenyl)-1-methyl-1H-pyrazol-4-yl]-N-(4-{[(1-methyl-1H-tetrazol-5-yl)sulfonyl]methyl}phenyl)acrylamide]",224 to 225 °C
6,CCOP(=O)(Cc1ccc(NC(=O)/C=C/c2cnn(C)c2-c2ccc(F)cc2)c(C)c1)OCC,154 to 155 °C
7,CCOP(=O)(Cc1ccc(NC(=O)CCc2cnn(-c3ccccc3)c2-c2ccccc2)cc1)OCC,157 to 159 °C
8,CCOP(=O)(OCC)C(OC)c1ccc(NC(=O)/C=C/c2cnn(C)c2-c2ccc(F)cc2)cc1 (stereo not drawn),200 to 201 °C
9,"Cn1ncc(/C=C/C(=O)Nc2ccc(CNC(=O)OC(C)(C)C)cc2)c1-c1ccc(F)cc1 [Example 170, tert-Butyl 4-({(2E)-3-[5-(4-fluorophenyl)-1-methyl-1H-pyrazol-4-yl]prop-2-enoyl]amino)benzylcarbamate]",222 to 223 °C
10,"CC(C)C(=O)NCc1ccc(NC(=O)/C=C/c2cnn(C)c2-c2ccc(F)cc2)cc1 [Example 139, (2E)-3-[5-(4-Fluorophenyl)-1-methyl-1H-pyrazol-4-yl]-N-{4-[(isobutyrylamino)methyl]phenyl}acrylamide]",258 to 259 °C
11,"CCc1nc(COc2ccc(NC(=O)/C=C/c3cnn(C)c3-c3ccc(F)cc3)cc2)cs1 [Example 93, (2E)-N-{4-[(2-Ethyl-1,3-thiazol-4-yl)methoxy]phenyl}-3-[5-(4-fluorophenyl)-1-methyl-1H-pyrazol-4-yl]acrylamide]",98 to 99 °C
12,"Cn1ncc(/C=C/C(=O)Nc2ccc(CS(=O)(=O)C(C)(C)C)cc2)c1-c1ccc(F)cc1 [Example 224, (2E)-N-{4-[(tert-Butylsulfonyl)methyl]phenyl}-3-[5-(4-fluorophenyl)-1-methyl-1H-pyrazol-4-yl]acrylamide]",260 to 261 °C
13,CCOP(=O)(Cc1ccc(NC(=O)/C=C/c2cnn(C)c2-c2ccc(C(F)(F)F)cc2)cc1)OCC,200 to 201 °C
14,CCOP(=O)(Cc1ccc(NC(=O)/C=C/c2cn(C)nc2-c2ccc(F)cc2)cc1)OCC,197 to 198 °C
15,COP(=O)(Cc1ccc(NC(=O)/C=C/c2cnn(C)c2-c2ccc(Cl)cc2)cc1)OC,209 to 210 °C
16,COP(=O)(Cc1ccc(NC(=O)/C=C/c2cnn(C)c2-c2cccc(Cl)c2)cc1)OC,248 to 249 °C
17,COc1ccc(-c2c(/C=C\C(=O)Nc3ccc(CP(=O)(OC)OC)cc3)cnn2C)cc1,172 to 173 °C
18,CCOP(=O)(Cc1ccc(NC(=O)CCc2cnn(C)c2-c2ccc(F)cc2)cc1)OCC,143 to 144 °C
19,COP(=O)(Cc1ccc(NC(=O)/C=C/c2c(C)nn(C)c2-c2ccc(F)cc2)cc1)OC,195 to 198 °C
20,CCOP(=O)(Cc1ccc(NC(=O)/C=C/c2cnn(C)c2-c2cccc3ccccc23)cc1)OCC,229 to 231 °C
